Measured values from article PMC7808747, “Design, synthesis, and in vitro evaluation of BP-1-102 analogs with modified hydrophobic fragments for STAT3 inhibition” (Journal of Enzyme Inhibition and Medicinal Chemistry, 2021).
Where two headings read alike, the source gives them in different places.

What was measured:
[1] = test system: mouse lung TC-1 cancer cell line; assay: MTT cytotoxicity assay, TC-1; type: cell-based; conditions: for IC50: Mus musculus, read-out: IC50±SD TC-1; for cytotoxic effect in TC-1 (in words): 0–50 µM, 24 h
Experimental: (§1) Cells were seeded at the density of 2000 cells per well (96-well F microplates; Nunc, Roskilde, Denmark). The following day, the tested compounds were added. In the next 24 h, MTT (3-(4,5-dimethylthiazol-2-yl)-2,5-diphenyltetrazolium bromide) was added. After 6 h, DMF (dimethylformamide) was added, and after additional 24 h, absorbance was measured at 560 nm by a microplate reader.

[2] = test system: TC-1 cells; assay: Annexin V / propidium iodide FACS, TC-1; conditions: TC-1, 24 h
Experimental: (§6) Cells were harvested by centrifugation, resuspended in cold PBS and again centrifuged. Cell pellets were then resuspended in Annexin V Binding Buffer (ApoFlowEx FITC Kit, ED7044, Exbio, Vestec, Czech Republic), annexin V-APC and PI were added to the cell pellet and mixed. Cells were incubated in the dark at room temperature for 15 min. After the incubation, cells were centrifuged, resuspended in Annexin V Binding Buffer and analysed by flow cytometry. Five thousand cells per sample were measured by analysing annexin V and PI using a BD FACSVerse™ flow cytometer (BD Biosciences, Franklin Lakes, NJ). Data were analysed using FlowJo 10 software (FlowJo LLC, Ashland, OR), and the percentage of viable (annexin V-negative/PI-negative) cells relative to control was plotted.

[3] = test system: STAT3 Y705 phosphorylation (pY705); assay: STAT3 pY705 immunoblotting, MDA-MB-231; type: cell-based, human; conditions: MDA-MB-231, micromolar concentration range, 4 h
Experimental: The cells were exposed to BP-1-102 (1), compounds 6 and 14 in a micromolar concentration range for 4 h, and then the levels of STAT3 pY705 and total STAT3 were probed by immunoblotting with specific antibodies. […] It can be concluded that both novel compounds 6 and 14 manifested inhibitory effects on receptor-mediated phosphorylation of Y705 of STAT3 in both human and mouse cell lines.
Cells were washed three times with PBS, harvested into 95 °C-heated Laemmli SDS sample lysis buffer (2% SDS, 50 mM Tris–Cl, 10% glycerol in double distilled H2O) and sonicated at 3 μm amplitude for 3 × 10 or 3 × 30 s with 10 or 30 s cooling intervals in a Soniprep 150 (MSE, London, UK) or Diagenode Bioruptor 300 (Diagenode, Liege, Belgium) for human and murine cell lines, respectively. Concentration of proteins was estimated by the Pierce^TM BCA Protein Assay (Thermo Scientific, Waltham, MA). DTT (100 mM) and 0.01% bromophenol blue were added to the lysates before separation by SDS-PAGE (10% gels were used). Equal protein amounts (40 or 35 μg for human or murine cell lines, respectively) were loaded into each well. Proteins were electrotransferred onto a nitrocellulose membrane (Amersham^TM Protran^TM 0.45 µm NC, GE Healthcare, Chalfont St Giles, UK) using wet transfer and detected by specific antibodies (at 4 °C overnight) combined with HRP-conjugated secondary antibodies. Peroxidase activity was detected by Amersham^TM ECL Western Blotting Detection Reagents (GE Healthcare, Chalfont St Giles, UK). GAPDH was used as a loading control.

[4] = test system: RPE-1; assay: Resazurin assay, RPE-1 (Table 2); type: cell-based; conditions: Homo sapiens, resazurin assay (footnote a), read-out: IC50±SD RPE-1
Experimental: The resazurin reduction assay[34] was performed as described previously[38]. Briefly, cells were seeded onto a 96-well plate (2000 cells per well) in hexaplicate and the following day treated with the tested compounds (dissolved in DMSO as 50 mM stock) in a concentration range as indicated. After 24 h, 200 μl of culture medium of each well was exchanged for 100 μl of resazurin (stock 30 mg/ml; Sigma, St. Louis, MO) diluted 10 times in the culture medium, and the cells were incubated at 37 °C for 1–3 h. Reading of fluorescence was done using an Envision reader (PerkinElmer, Waltham, MA). Absolute values of fluorescence were related to the values of control/untreated cells. To estimate the cytotoxic concentration (half maximal inhibitory concentration, IC50), log-scale data were processed in GraphPad Prism software (La Jolla, CA) using nonlinear fit curve.

[5] = test system: mouse prostate TRAMP-C2 cancer cell line; assay: MTT cytotoxicity assay, TRAMP-C2; type: cell-based; conditions: for IC50: Mus musculus, read-out: IC50±SD TRAMP-C2; for cytotoxic effect in TRAMP-C2 (in words): 0–50 µM, 24 h
Experimental: as §1

[6] = test system: prostate carcinoma DU-145; assay: Resazurin cytotoxicity assay, DU-145; conditions: for IC50: Homo sapiens, DU-145, read-out: IC50±SD DU-145
Experimental: (§2) Furthermore, the cytotoxicity of compound 6 was compared to BP-1-102 (1) in human glioblastoma cell lines U-87 and T98 in concentration range 0–80 µM for 24 h using the crystal violet assay.
(§3) The resazurin reduction assay[34] was performed as described previously. Briefly, cells were seeded onto a 96-well plate (2000 cells per well) in hexaplicate and the following day treated with the tested compounds (dissolved in DMSO as 50 mM stock) in a concentration range as indicated. After 24 h, 200 μl of culture medium of each well was exchanged for 100 μl of resazurin (stock 30 mg/ml; Sigma, St. Louis, MO) diluted 10 times in the culture medium, and the cells were incubated at 37 °C for 1–3 h. Reading of fluorescence was done using an Envision reader (PerkinElmer, Waltham, MA). Absolute values of fluorescence were related to the values of control/untreated cells. To estimate the cytotoxic concentration (half maximal inhibitory concentration, IC50), log-scale data were processed in GraphPad Prism software (La Jolla, CA) using nonlinear fit curve.

[7] = test system: MDA-MB-231 cells; assay: Annexin V / propidium iodide FACS, MDA-MB-231; type: cell-based, human; conditions: MDA-MB-231, 0, 5, 10, 20, 50 µM, 24 h
Experimental: as §6

[8] = test system: TRAMP-C2 cells; assay: Annexin V / propidium iodide FACS, TRAMP-C2; type: cell-based, mouse; conditions: TRAMP-C2, 24 h
Experimental: as §6

[9] = test system: human breast cancer MDA-MB-231 cell line; assay: Resazurin cytotoxicity assay, MDA-MB-231; type: cell-based; conditions: for cytotoxic effect in MDA-MB-231 (in words): 0, 5, 10, 20, 50 µM
Experimental: (§4) The cells were treated with the compounds at concentrations 0, 5, 10, 20, and 50 µM for 24 h, and the cytotoxicity was estimated by the resazurin assay.
To estimate IC50 of 6 and 14, MDA-MB-231 cells were treated with 1 (0, 2, 5, 10, 15, 20, 25, 30, 40, and 50 µM), 6 (0, 5, 10, 20, 25, 30, 40, 50, 70, and 100 µM), and 14 (0, 20, 40, 50, 60, 70, 80, 100, 150, and 200 µM) for 24 h.
as §3

[10] = test system: human breast adenocarcinoma MCF-7; assay: Resazurin cytotoxicity assay, MCF-7; conditions: for IC50: Homo sapiens, MCF7, read-out: IC50±SD MCF-7
Experimental: as §2, §3

[11] = test system: human glioblastoma U373; assay: Crystal violet assay, U373; conditions: 0–50 µM, 24 h
Experimental: as §4
(§5) To determine cell viability by crystal violet assay, cells were seeded in 96-well plates at densities of 3000 (RPE-1), 5000 (U373 and T98-G), and 8000 (U-87 MG) cells per well. The next day the cells were treated with the tested compounds in triplicate in a concentration range as indicated. After 24 h, the cells in each well were washed twice with 150 µl PBS and then stained in 30 µl 0.5% w/v crystal violet in 20% methanol for 15 min. Plates were washed three times with double distilled H2O and left to dry overnight. Crystal violet was solubilised with 75 µl 0.2% Triton X-100 (Sigma, St. Louis, MO) in PBS for 15 min. Absorbance of crystal violet was measured at 595 nm using a microplate reader (Multiskan EX, Thermo Electron Corporation, Waltham, MA). Absorbance of the treated samples was expressed as a percentage of absorbance of untreated cells.

[12] = test system: human immortalised retinal pigment epithelium RPE-1; assay: Crystal violet assay, RPE-1; conditions: 0–50 µM, 24 h
Experimental: as §4, §5

[13] = test system: human glioblastoma cell line T98; assay: Crystal violet assay, T98; conditions: 0–80 µM, 24 h, compared to U-87 cells
Experimental: as §2, §5

[14] = test system: cervix carcinoma HeLa; assay: Resazurin cytotoxicity assay, HeLa; conditions: 0–50 µM, 24 h
Experimental: as §2, §3

[15] = test system: osteosarcoma U2-OS; assay: Resazurin cytotoxicity assay, U2-OS; conditions: 0–50 µM, 24 h
Experimental: as §2, §3

[16] = test system: human breast cancer MDA-MB-231; set-up: method as in PMID 20067773; conditions: previously published; cited from earlier work
[17] = test system: pancreatic cancer Panc-1 cell lines; set-up: method as in PMID 20067773; conditions: previously published; cited from earlier work
[18] = Homo sapiens, MDA-MB-231, 24 h, resazurin assay, 24 h, read-out: IC50±SD MDA-MB-231
[19] = MDA-MB-231, 24 h, resazurin assay

CN(CC(=O)N(Cc1ccc(C2CCCCC2)cc1)c1ccc(C(=O)O)c(O)c1)S(=O)(=O)c1c(F)c(F)c(F)c(F)c1F [BP-1-102 (1), 4-(N-(4-Cyclohexylbenzyl)-2-(2,3,4,5,6-pentafluoro-N-methylphenylsulfonamido)acetamido)-2-hydroxybenzoic acid, reference compound]
IC50 [1]: 7.8 ± 1.1 µM
cytotoxicity by annexin V/PI staining and FACS [2]: confirmed
inhibition of constitutive STAT3 Y705 phosphorylation [3]: inhibited constitutive STAT3 phosphorylation
IC50 [4]: 13.9 ± 0.2 µM
IC50 [5]: 7.9 ± 4.5 µM
IC50 [6]: 18 ± 8.3 µM
cell death induction (annexin V/PI, FACS) [7]: cell death induction was confirmed
cytotoxicity by annexin V/PI staining and FACS [8]: confirmed
IC50 ([9]; Homo sapiens, MDA-MB-231, 24 h, read-out: IC50±SD MDA-MB-231, resazurin assay, 24 h): 15 µM
IC50 ([9]; read-out: IC50±SD MDA-MB-231, resazurin assay, 24 h): 15 ± 3.7 µM

CN(CC(=O)N(Cc1ccc(C(C)(C)C)cc1)c1ccc(C(=O)O)c(O)c1)S(=O)(=O)c1c(F)c(F)c(F)c(F)c1F [Compound 6, 4-(N-(4-tert-Butylbenzyl)-2-(2,3,4,5,6-pentafluoro-N-methylphenylsulfonamido)acetamido)-2-hydroxybenzoic acid]
cytotoxic effect in TC-1 (in words) [1]: cytotoxic activity comparable to BP-1-102 (1)
IC50 [1]: 6.2 ± 1.1 µM
cytotoxicity by annexin V/PI staining and FACS [2]: confirmed
inhibition of constitutive STAT3 Y705 phosphorylation [3]: inhibited constitutive STAT3 phosphorylation
IC50 [4]: 24.5 ± 2.6 µM
IC50 [10]: 19.6 ± 3.6 µM
cytotoxic effect in TRAMP-C2 (in words) ([5]; MTT assay): cytotoxic activity comparable to BP-1-102 (1)
IC50 ([5]; MTT assay): 14.5 ± 13.4 µM
IC50 [6]: 34 ± 2.6 µM
cytotoxic activity in U373 (in words) [11]: concentration-dependent cytotoxic activity
cytotoxic activity in RPE-1 (in words) [12]: concentration-dependent cytotoxic activity
cytotoxicity in T98 (in words) [13]: remarkable resistance
cell death induction (annexin V/PI, FACS) [7]: cell death induction was confirmed
cytotoxicity by annexin V/PI staining and FACS [8]: confirmed
IC50 [9, 18]: 26.2 µM
concentration from which the compound was cytotoxic [9, 19]: 10 µM
IC50 ([9]; resazurin assay, 24 h, read-out: IC50±SD MDA-MB-231): 26.2 ± 5.6 µM

CN(CC(=O)N(Cc1ccc(C(F)(F)F)cc1)c1ccc(C(=O)O)c(O)c1)S(=O)(=O)c1c(F)c(F)c(F)c(F)c1F [Compound 14, 4-(N-(4-Trifluoromethylbenzyl)-2-(2,3,4,5,6-pentafluoro-N-methylphenylsulfonamido)acetamido)-2-hydroxybenzoic acid]
cytotoxic effect in TC-1 (in words) [1]: cytotoxic activity comparable to BP-1-102 (1)
IC50 [1]: 25.3 ± 6.6 µM
cytotoxicity by annexin V/PI staining and FACS [2]: confirmed
inhibition of constitutive STAT3 Y705 phosphorylation [3]: inhibited constitutive STAT3 phosphorylation
IC50 [4]: 39.7 ± 7.4 µM
cytotoxic effect in HeLa (in words) [14]: comparable to BP-1-102 (1) and compound 6 at 50 µM, it was markedly decreased at lower concentrations
cytotoxic effect in MCF-7 (in words) ([10]; 0–50 µM, 24 h, resazurin assay): comparable to BP-1-102 (1) and compound 6 at 50 µM, it was markedly decreased at lower concentrations
IC50 [10]: 47.3 ± 3.8 µM
cytotoxic effect in U2-OS (in words) [15]: comparable to BP-1-102 (1) and compound 6 at 50 µM, it was markedly decreased at lower concentrations
cytotoxic effect in TRAMP-C2 (in words) ([5]; MTT assay): cytotoxic activity comparable to BP-1-102 (1)
IC50 ([5]; MTT assay): 23.1 ± 10.5 µM
cytotoxic effect in DU-145 (in words) ([6]; 0–50 µM, 24 h, resazurin assay): weaker response
IC50 [6]: 65.3 ± 7.8 µM
cytotoxic activity in U373 (in words) [11]: concentration-dependent cytotoxic activity
cytotoxic activity in RPE-1 (in words) [12]: concentration-dependent cytotoxic activity
cell death induction (annexin V/PI, FACS) [7]: cell death induction was confirmed
cytotoxicity by annexin V/PI staining and FACS [8]: confirmed
IC50 [9, 18]: 39.3 ± 6.3 µM
concentration from which the compound was cytotoxic [9, 19]: 20 µM

Cc1ccc(S(=O)(=O)N(C)CC(=O)N(Cc2ccc(C3CCCCC3)cc2)c2ccc(C(=O)O)c(O)c2)cc1 [S3I-201.1066 (2), 4-(N-(4-Cyclohexylbenzyl)-2-(N-methyl-N-(p-toluenesulfonyl))acetamido)-2-hydroxybenzoic acid, reference compound]
cytotoxic effect in TC-1 (in words) [1]: did not demonstrate any cytotoxic effect
effect on viability of MDA-MB-231 [16]: reported to affect viability
cytotoxic effect in TRAMP-C2 (in words) ([5]; MTT assay): did not demonstrate any cytotoxic effect
effect on viability of Panc-1 [17]: reported to affect viability
cytotoxic effect in MDA-MB-231 (in words) ([9]; 24 h, resazurin assay): did not show any observable cytotoxic effect
cytotoxic effect in MDA-MB-231 (in words) ([9]; 24 h, resazurin assay, listed as 2): complete loss of cytotoxic activity
